Measured values: ChEMBL document CHEMBL4800722, “Data for DCP probe BI 605906” (2021)

Tests used:
[1] = target: Cyclin-G-associated kinase (Homo sapiens, UniProt O14976); assay: Dose response measurement (GAK)
[2] = target: Activin receptor type-1-like (Homo sapiens) (UniProt P37023); assay: ACVRL1 (ALK1) Invitrogen Lab (UK) kinase screen (BI); details: Compound concentration 1.0 uM
[3] = target: Bone morphogenetic protein receptor type-2 (Homo sapiens) (UniProt Q13873); assay: BMPR2 Invitrogen Lab (UK) kinase screen (BI); details: Compound concentration 1.0 uM
[4] = target: Serine/threonine-protein kinase BRSK2 (Homo sapiens) (UniProt Q8IWQ3); assay: BRSK2 Invitrogen Lab (UK) kinase screen (BI); details: Compound concentration 1.0 uM
[5] = target: Cyclin-C/Cyclin-dependent kinase 19 (Homo sapiens) (UniProt Q9BWU1+P24863); assay: CDK11/CYCLIN C Invitrogen Lab (UK) kinase screen (BI); type: protein-complex assay; details: Compound concentration 1.0 uM
[6] = target: Dual specificity tyrosine-phosphorylation-regulated kinase 2 (Homo sapiens) (UniProt Q92630); assay: DYRK2 Invitrogen Lab (UK) kinase screen (BI); details: Compound concentration 1.0 uM
[7] = target: Serine/threonine-protein kinase SIK3 (Homo sapiens) (UniProt Q9Y2K2); assay: SIK3 Invitrogen Lab (UK) kinase screen (BI); details: Compound concentration 1.0 uM
[8] = target: CDK9/Cyclin K (Homo sapiens) (UniProt P50750+O75909); assay: CDK9_CYCLINK Invitrogen Lab (UK) kinase screen (BI); type: protein-complex assay; details: Compound concentration 1.0 uM
[9] = target: Homeodomain-interacting protein kinase 2 (Homo sapiens) (UniProt Q9H2X6); assay: HIPK2 Invitrogen Lab (UK) kinase screen (BI); details: Compound concentration 1.0 uM
[10] = target: Mitogen-activated protein kinase 8 (Homo sapiens) (UniProt P45983); assay: JNK1A1SAPK1C DUNDEE kinase screen (BI); details: Compound concentration 10.0 uM
[11] = target: RAC-beta serine/threonine-protein kinase (Homo sapiens) (UniProt P31751); assay: PKB-BETA DUNDEE kinase screen (BI); details: Compound concentration 10.0 uM
[12] = target: Sodium-dependent serotonin transporter (Homo sapiens) (UniProt P31645); details: Compound concentration 10.0 uM
[13] = target: Histamine H1 receptor (Homo sapiens) (UniProt P35367); details: Compound concentration 10.0 uM
[14] = target: Histamine H3 receptor (Homo sapiens) (UniProt Q9Y5N1); details: Compound concentration 10.0 uM
[15] = target: Polyunsaturated fatty acid lipoxygenase ALOX12 (Homo sapiens) (UniProt P18054); details: Compound concentration 10.0 uM
[16] = target: Cyclin-dependent kinase 16 (Homo sapiens) (UniProt Q00536); details: Compound concentration 1.0 uM
[17] = target: Serine/threonine-protein kinase Nek8 (Homo sapiens) (UniProt Q86SG6); details: Compound concentration 1.0 uM
[18] = target: Phosphatidylinositol 4-phosphate 5-kinase type-1 beta (Homo sapiens) (UniProt O14986); details: Compound concentration 1.0 uM
[19] = target: Phosphatidylinositol 4-phosphate 5-kinase type-1 gamma (Homo sapiens) (UniProt O60331); details: Compound concentration 1.0 uM
[20] = target: Serine/threonine-protein kinase 32B (Homo sapiens) (UniProt Q9NY57); details: Compound concentration 1.0 uM
[21] = target: Serine/threonine-protein kinase BRSK1 (Homo sapiens) (UniProt Q8TDC3); details: Compound concentration 1.0 uM
[22] = target: Calcium/calmodulin-dependent protein kinase type 1 (Homo sapiens) (UniProt Q14012); details: Compound concentration 1.0 uM
[23] = target: T1, Serine/threonine-protein kinase Chk1 (Homo sapiens) (UniProt O14757)
T1 sequence (whole entry): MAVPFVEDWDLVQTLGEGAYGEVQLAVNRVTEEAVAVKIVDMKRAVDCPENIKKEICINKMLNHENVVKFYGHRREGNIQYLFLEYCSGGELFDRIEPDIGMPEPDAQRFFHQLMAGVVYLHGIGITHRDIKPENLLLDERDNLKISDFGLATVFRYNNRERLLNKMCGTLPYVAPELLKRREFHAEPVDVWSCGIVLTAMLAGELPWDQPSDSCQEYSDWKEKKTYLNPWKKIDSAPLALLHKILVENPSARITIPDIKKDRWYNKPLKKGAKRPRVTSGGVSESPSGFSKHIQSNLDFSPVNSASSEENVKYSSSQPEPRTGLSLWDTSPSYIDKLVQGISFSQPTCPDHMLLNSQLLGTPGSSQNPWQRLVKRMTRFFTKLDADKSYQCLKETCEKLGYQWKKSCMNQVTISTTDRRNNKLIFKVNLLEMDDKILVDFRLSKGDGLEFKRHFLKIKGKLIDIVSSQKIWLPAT

[24] = target: Macrophage colony-stimulating factor 1 receptor (Homo sapiens) (UniProt P07333)
[25] = target: DNA-dependent protein kinase catalytic subunit (Homo sapiens) (UniProt P78527); details: Compound concentration 1.0 uM
[26] = target: Fibroblast growth factor receptor 2 (Homo sapiens) (UniProt P21802); details: Compound concentration 1.0 uM
[27] = target: Serine/threonine-protein kinase mTOR (Homo sapiens) (UniProt P42345)
[28] = target: G protein-coupled receptor kinase 4 (Homo sapiens) (UniProt P32298); details: Compound concentration 1.0 uM
[29] = target: Interleukin-1 receptor-associated kinase 1 (Homo sapiens) (UniProt P51617); details: Compound concentration 1.0 uM
[30] = target: Mitogen-activated protein kinase kinase kinase 11 (Homo sapiens) (UniProt Q16584); details: Compound concentration 1.0 uM
[31] = target: Mitogen-activated protein kinase 1 (Homo sapiens) (UniProt P28482)
[32] = target: Serine/threonine-protein kinase Nek2 (Homo sapiens) (UniProt P51955); details: Compound concentration 1.0 uM
[33] = target: Serine/threonine-protein kinase N1 (Homo sapiens) (UniProt Q16512); details: Compound concentration 1.0 uM
[34] = target: Protein-tyrosine kinase 2-beta (Homo sapiens) (UniProt Q14289)
[35] = target: Tyrosine-protein kinase Srms (Homo sapiens) (UniProt Q9H3Y6); details: Compound concentration 1.0 uM
[36] = target: Tyrosine-protein kinase SYK (Homo sapiens) (UniProt P43405)
[37] = target: Tyrosine-protein kinase receptor TYRO3 (Homo sapiens) (UniProt Q06418); details: Compound concentration 1.0 uM
Tyrosine-protein kinase receptor TYRO3 (Homo sapiens), sequence (Q06418 whole entry): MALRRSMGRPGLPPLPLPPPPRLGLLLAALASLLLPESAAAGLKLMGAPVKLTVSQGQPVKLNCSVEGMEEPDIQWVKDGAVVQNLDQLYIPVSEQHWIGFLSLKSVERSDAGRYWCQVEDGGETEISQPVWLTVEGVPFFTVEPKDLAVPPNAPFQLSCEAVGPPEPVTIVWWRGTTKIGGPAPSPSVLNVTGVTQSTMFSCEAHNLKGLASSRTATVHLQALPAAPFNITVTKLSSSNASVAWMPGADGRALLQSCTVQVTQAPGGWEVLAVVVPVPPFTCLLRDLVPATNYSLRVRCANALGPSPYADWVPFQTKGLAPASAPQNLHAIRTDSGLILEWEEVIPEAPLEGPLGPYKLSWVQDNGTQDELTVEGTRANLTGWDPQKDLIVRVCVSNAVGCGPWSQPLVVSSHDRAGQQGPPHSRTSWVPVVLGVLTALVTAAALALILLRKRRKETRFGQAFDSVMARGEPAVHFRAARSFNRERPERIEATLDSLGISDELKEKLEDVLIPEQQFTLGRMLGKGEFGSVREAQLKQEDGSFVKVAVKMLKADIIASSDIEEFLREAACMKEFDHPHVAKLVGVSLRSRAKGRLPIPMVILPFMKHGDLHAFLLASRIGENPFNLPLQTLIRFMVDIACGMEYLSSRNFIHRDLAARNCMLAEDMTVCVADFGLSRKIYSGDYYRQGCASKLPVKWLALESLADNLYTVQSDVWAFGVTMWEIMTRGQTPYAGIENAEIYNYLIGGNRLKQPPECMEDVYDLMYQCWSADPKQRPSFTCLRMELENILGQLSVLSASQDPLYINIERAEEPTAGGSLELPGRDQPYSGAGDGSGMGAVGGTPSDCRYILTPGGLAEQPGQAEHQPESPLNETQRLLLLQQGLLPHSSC

Macrophage colony-stimulating factor 1 receptor (Homo sapiens), sequence (P07333 whole entry): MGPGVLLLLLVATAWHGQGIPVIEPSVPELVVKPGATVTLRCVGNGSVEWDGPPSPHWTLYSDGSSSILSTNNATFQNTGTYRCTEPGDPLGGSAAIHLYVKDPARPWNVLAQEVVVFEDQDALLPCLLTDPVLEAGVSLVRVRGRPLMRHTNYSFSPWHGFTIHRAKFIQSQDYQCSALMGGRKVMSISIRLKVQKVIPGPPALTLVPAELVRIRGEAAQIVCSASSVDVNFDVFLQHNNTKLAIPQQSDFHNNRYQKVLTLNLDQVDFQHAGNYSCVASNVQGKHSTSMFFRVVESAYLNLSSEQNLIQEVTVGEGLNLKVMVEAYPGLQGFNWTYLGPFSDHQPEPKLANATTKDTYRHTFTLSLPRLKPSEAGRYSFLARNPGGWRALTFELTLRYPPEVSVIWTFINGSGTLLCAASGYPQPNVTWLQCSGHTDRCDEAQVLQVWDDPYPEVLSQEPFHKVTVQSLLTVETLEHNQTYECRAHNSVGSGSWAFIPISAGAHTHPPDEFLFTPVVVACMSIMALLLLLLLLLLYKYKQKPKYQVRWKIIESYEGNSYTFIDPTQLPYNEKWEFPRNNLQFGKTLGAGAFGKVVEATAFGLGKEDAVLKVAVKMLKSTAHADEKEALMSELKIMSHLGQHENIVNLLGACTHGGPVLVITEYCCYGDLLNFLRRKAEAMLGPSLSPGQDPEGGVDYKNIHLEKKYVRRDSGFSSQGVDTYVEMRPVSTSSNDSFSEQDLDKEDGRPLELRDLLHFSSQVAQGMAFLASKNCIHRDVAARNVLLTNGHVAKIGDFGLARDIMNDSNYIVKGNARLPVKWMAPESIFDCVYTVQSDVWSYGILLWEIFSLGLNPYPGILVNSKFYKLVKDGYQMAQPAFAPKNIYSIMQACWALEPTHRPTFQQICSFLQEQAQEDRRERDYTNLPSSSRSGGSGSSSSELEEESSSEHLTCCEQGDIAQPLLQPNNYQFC
Protein-tyrosine kinase 2-beta (Homo sapiens), sequence (Q14289 whole entry, looked up): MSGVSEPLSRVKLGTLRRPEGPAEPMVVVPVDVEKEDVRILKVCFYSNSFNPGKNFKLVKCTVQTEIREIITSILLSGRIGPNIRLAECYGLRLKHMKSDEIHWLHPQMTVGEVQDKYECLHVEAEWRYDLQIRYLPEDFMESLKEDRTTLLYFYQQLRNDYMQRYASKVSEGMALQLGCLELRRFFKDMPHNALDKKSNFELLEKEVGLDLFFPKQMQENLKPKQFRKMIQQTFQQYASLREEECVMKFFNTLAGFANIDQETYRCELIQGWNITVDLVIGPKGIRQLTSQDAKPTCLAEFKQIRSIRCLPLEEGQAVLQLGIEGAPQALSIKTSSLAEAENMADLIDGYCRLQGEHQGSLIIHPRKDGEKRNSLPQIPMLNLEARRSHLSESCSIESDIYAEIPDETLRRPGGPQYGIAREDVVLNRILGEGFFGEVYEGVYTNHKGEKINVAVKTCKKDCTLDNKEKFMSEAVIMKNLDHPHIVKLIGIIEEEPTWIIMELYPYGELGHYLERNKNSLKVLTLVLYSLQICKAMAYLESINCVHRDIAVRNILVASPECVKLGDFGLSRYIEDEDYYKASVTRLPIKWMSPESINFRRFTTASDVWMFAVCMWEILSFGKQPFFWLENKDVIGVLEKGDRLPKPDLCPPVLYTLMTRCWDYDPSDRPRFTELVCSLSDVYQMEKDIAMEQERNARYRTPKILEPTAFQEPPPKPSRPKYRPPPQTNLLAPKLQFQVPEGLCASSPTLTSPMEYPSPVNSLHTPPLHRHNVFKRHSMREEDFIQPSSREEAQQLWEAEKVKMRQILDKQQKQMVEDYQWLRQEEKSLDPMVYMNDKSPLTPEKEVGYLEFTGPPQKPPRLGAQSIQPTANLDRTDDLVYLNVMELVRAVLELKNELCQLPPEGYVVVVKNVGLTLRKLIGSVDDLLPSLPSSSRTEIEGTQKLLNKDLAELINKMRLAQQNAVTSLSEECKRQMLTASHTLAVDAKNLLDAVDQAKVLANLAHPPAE
Mitogen-activated protein kinase 1 (Homo sapiens), sequence (P28482 whole entry): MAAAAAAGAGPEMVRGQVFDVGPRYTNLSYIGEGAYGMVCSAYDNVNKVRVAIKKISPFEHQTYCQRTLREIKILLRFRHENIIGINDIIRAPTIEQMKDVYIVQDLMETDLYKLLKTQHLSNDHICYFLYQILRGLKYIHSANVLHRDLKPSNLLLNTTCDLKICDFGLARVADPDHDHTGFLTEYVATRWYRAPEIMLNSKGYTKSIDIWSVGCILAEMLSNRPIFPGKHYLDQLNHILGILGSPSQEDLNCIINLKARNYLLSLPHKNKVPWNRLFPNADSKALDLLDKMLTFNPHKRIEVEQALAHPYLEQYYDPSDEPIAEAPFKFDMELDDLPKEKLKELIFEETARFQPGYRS
Serine/threonine-protein kinase N1 (Homo sapiens), sequence (Q16512 2-942 limits assumed): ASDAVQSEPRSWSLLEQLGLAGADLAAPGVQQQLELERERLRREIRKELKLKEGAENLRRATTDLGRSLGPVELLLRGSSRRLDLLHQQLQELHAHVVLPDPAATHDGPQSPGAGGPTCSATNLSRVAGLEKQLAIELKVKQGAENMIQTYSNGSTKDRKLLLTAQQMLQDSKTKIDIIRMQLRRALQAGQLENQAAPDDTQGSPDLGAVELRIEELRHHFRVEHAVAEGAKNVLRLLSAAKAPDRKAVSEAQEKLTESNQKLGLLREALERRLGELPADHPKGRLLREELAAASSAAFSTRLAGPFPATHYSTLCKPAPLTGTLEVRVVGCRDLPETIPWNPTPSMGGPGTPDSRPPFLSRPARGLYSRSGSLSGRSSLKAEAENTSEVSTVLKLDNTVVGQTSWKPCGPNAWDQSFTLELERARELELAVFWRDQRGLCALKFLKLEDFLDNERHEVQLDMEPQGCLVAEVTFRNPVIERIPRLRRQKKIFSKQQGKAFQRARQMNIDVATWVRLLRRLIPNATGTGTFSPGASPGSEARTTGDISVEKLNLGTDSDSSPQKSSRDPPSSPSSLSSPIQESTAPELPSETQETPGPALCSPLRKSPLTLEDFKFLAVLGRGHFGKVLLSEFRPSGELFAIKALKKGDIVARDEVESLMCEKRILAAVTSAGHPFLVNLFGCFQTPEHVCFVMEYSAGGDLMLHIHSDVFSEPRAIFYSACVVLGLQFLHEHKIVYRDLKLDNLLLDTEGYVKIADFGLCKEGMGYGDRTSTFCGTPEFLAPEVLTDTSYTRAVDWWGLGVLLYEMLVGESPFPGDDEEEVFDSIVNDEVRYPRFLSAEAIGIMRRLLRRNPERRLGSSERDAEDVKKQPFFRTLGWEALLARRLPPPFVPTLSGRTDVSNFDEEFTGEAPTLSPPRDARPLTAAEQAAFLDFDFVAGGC
Mitogen-activated protein kinase 8 (Homo sapiens), sequence (P45983 whole entry): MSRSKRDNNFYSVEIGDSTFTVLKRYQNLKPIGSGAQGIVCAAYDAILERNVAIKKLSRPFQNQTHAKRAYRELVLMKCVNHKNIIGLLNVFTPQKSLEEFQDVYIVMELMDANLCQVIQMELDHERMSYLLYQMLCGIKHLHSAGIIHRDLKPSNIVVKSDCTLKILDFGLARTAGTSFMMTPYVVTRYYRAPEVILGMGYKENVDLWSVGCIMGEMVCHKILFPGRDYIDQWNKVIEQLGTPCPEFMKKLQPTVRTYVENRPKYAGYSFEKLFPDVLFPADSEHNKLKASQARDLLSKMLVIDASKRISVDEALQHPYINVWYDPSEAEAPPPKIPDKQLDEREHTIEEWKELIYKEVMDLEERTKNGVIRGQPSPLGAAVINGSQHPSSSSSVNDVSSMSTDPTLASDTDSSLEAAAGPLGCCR
Histamine H3 receptor (Homo sapiens), sequence (Q9Y5N1 whole entry): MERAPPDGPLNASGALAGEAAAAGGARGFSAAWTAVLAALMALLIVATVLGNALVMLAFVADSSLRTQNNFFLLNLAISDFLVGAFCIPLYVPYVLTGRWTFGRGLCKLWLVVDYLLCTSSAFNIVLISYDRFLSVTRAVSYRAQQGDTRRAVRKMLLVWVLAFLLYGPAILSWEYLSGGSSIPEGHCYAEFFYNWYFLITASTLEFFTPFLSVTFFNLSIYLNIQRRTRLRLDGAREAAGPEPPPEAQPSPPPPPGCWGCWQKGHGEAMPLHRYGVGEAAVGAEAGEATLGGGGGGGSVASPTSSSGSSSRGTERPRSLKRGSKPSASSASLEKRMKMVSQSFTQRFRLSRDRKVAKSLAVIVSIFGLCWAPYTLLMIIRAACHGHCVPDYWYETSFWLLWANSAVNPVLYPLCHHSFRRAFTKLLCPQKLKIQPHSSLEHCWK

SMILES: CCC(F)(F)c1cc(N2CCC(S(C)(=O)=O)CC2)nc2sc(C(N)=O)c(N)c12 [BI-605906]
- IC50 [1]: 188 nM
- residual activity [2]: 64%
- residual activity [3]: 65%
- residual activity [4]: 102%
- residual activity [5]: 83%
- residual activity [6]: 62%
- residual activity [7]: 79%
- residual activity [8]: 88%
- residual activity [9]: 81%
- residual activity [10]: 93.8%
- residual activity [11]: 98.1%
- inhibition [12]: 8.94%
- inhibition [13]: 9.22%
- inhibition [14]: 0.2%
- residual activity [15]: 96%
- residual activity [16]: 87%
- residual activity [17]: 95%
- residual activity [18]: 108%
- residual activity [19]: 96%
- residual activity [20]: 96%
- residual activity [21]: 92%
- residual activity [22]: 109%
- residual activity ([23]; Compound concentration 1.0 uM): 95%
- residual activity ([23]; Compound concentration 10.0 uM): 89%
- residual activity ([24]; Compound concentration 1.0 uM): 58%
- residual activity ([24]; Compound concentration 10.0 uM): 14%
- residual activity [25]: 90%
- residual activity [26]: 94%
- residual activity ([27]; Compound concentration 1.0 uM): 99%
- residual activity ([27]; Compound concentration 10.0 uM): 98%
- residual activity [28]: 100%
- residual activity [29]: 89%
- residual activity [30]: 95%
- residual activity ([31]; Compound concentration 1.0 uM): 92%
- residual activity ([31]; Compound concentration 10.0 uM): 101%
- residual activity [32]: 93%
- residual activity [33]: 87%
- residual activity ([34]; Compound concentration 1.0 uM): 91%
- residual activity ([34]; Compound concentration 10.0 uM): 70%
- residual activity [35]: 99%
- residual activity ([36]; Compound concentration 1.0 uM): 94%
- residual activity ([36]; Compound concentration 10.0 uM): 97%
- residual activity [37]: 94%
